Measured values from US4740233A, “Substituted 1,2,4-triazolo[1,5-a]-pyrimidine-2-sulfonamides and compositions and methods of controlling undesired vegetation and suppressing the nitrification of ammonium nitrogen in soil” (The Dow Chemical Company, priority 1986, dated 1988).

Assays:
Experiment in all cases: Preemergent control of plant species
jimsonweed = assay type: in vivo, Datura stramonium; settings: Datura stramonium, pre-emergence, 336 h; 0.25 lb/acre; read-out: percent preemergent control
Procedure: (§1) The seeds of various species of plants were planted in beds of good agricultural soil in a greenhouse. A number of compositions of the present invention, generally in the nature of an aqueous emulsion, were applied at rates listed in the table so as to deposit a predetermined amount of active ingredients uniformly throughout the surface of the bed. Another seed bed was treated only with water to serve as a control. After treatment the seed beds were maintained for two weeks under greenhouse conditions conducive for good plant growth and watered as necessary. Control refers to the reduction in growth compared to the observed results of the same untreated species.

yellow nutsedge = assay type: in vivo, Cyperus esculentus; settings: Cyperus, pre-emergence, 336 h; 0.25 lb/acre; read-out: percent preemergent control
Procedure: as §1

velvetleaf = assay type: in vivo, Abutilon theophrasti; settings: Abutilon theophrasti, pre-emergence, 336 h; 0.25 lb/acre; read-out: percent preemergent control
Procedure: as §1

yellow foxtail = assay type: in vivo, Setaria lutescens; settings: Setaria, pre-emergence, 336 h; 0.25 lb/acre; read-out: percent preemergent control
Procedure: as §1

annual morning glory = assay type: in vivo, Ipomoea spp.; settings: Ipomoea, pre-emergence, 336 h; 0.25 lb/acre; read-out: percent preemergent control
Procedure: as §1

cotton = assay type: in vivo, Gossypium spp.; settings: Gossypium hirsutum, pre-emergence, 336 h; 0.25 lb/acre; read-out: percent preemergent control
Procedure: as §1

wheat = assay type: in vivo, Triticum aestivum; settings: Triticum aestivum, pre-emergence, 336 h; 0.25 lb/acre; read-out: percent preemergent control
Procedure: as §1

sugar beet = assay type: in vivo, Beta saccharifera; settings: Beta vulgaris, pre-emergence, 336 h; 0.25 lb/acre; read-out: percent preemergent control
Procedure: as §1

rape = assay type: in vivo, Brassica napus; settings: Brassica napus, pre-emergence, 336 h; 0.25 lb/acre; read-out: percent preemergent control
Procedure: as §1

soybean = assay type: in vivo, Glycine max.; settings: Glycine max, pre-emergence, 336 h; 0.25 lb/acre; read-out: percent preemergent control
Procedure: as §1

johnson grass = assay type: in vivo, Sorghum halepense; settings: Sorghum halepense, pre-emergence, 336 h; 0.25 lb/acre; read-out: percent preemergent control
Procedure: as §1

sorghum = assay type: in vivo, Sorghum vulgare; settings: Sorghum, pre-emergence, 336 h; 0.25 lb/acre; read-out: percent preemergent control
Procedure: as §1

rice = assay type: in vivo, Oryza sativa; settings: Oryza sativa, pre-emergence, 336 h; 0.25 lb/acre; read-out: percent preemergent control
Procedure: as §1

barnyardgrass = assay type: in vivo, Echinochloa crusgalli; settings: Echinochloa crus-galli, pre-emergence, 336 h; 0.25 lb/acre; read-out: percent preemergent control
Procedure: as §1

corn = assay type: in vivo, Zea mays; settings: Zea mays, pre-emergence, 336 h; 0.25 lb/acre; read-out: percent preemergent control
Procedure: as §1

Row | SMILES | pest or weed control at 280.212 g/ha (jimsonweed) | pest or weed control at 280.212 g/ha (yellow nutsedge) | pest or weed control at 280.212 g/ha (velvetleaf) | pest or weed control at 280.212 g/ha (yellow foxtail) | pest or weed control at 280.212 g/ha (annual morning glory) | plant injury at 280.212 g/ha (cotton) | plant injury at 280.212 g/ha (wheat) | plant injury at 280.212 g/ha (sugar beet) | plant injury at 280.212 g/ha (rape) | plant injury at 280.212 g/ha (soybean) | pest or weed control at 280.212 g/ha (johnson grass) | plant injury at 280.212 g/ha (sorghum) | plant injury at 280.212 g/ha (rice) | pest or weed control at 280.212 g/ha (barnyardgrass) | plant injury at 280.212 g/ha (corn)
1 | Cc1cc(C(F)(F)F)n2nc(S(=O)(=O)Nc3c(Cl)ccc(C)c3Cl)nc2n1 [Compound 229] | 90% | 100% | 90% | 0% | 100% | 100% | 0% | 100% | 100% | 30% | 0% | 90% | 10% | 0% | 40%
2 | Cc1cc(C(F)(F)F)n2nc(S(=O)(=O)Nc3c(Cl)cccc3Cl)nc2n1 [Compound 227] | 100% | 100% | 30% | 90% | 70% | 60% | 90% | 100% | 100% | 0% | 70% | 100% | 50% | 50% | 40%
3 | COC(=O)c1cccc(C)c1NS(=O)(=O)c1nc2nccc(C)n2n1 [Compound 189] | 80% | 100% | 100% | 80% | 50% | 100% | 80% | 100% | 100% | 80% | 70% | 100% | 90% | 80% | 80%
4 | Cc1ccc(F)c(NS(=O)(=O)c2nc3nccc(C)n3n2)c1F [Compound 190] | 90% | 100% | 50% | 70% | 50% | 90% | 20% | 100% | – | 90% | 30% | 95% | 20% | 30% | 10%
5 | COc1nc2nc(S(=O)(=O)Nc3c(C)cccc3Cl)nn2cc1C [Compound 220] | 100% | 100% | 100% | 100% | 70% | 100% | 100% | 100% | 100% | 90% | 100% | 100% | 50% | 90% | 100%
6 | Cc1ccc(Cl)c(NS(=O)(=O)c2nc3ncccn3n2)c1Cl [Compound 139] | 100% | 100% | 100% | 100% | 90% | 100% | 80% | 100% | 100% | 50% | 100% | 100% | 90% | 80% | 70%
7 | COc1ccc(F)c(NS(=O)(=O)c2nc3nc(C)ccn3n2)c1F [Compound 172] | 100% | 100% | 100% | 100% | 90% | 100% | 90% | 100% | – | 90% | 90% | 100% | 100% | 100% | 80%
8 | COc1cccc(C(F)(F)F)c1NS(=O)(=O)c1nc2nccc(C)n2n1 [Compound 191] | 100% | 100% | 100% | 100% | 100% | 100% | 100% | 100% | 100% | 100% | 100% | 100% | – | 100% | 95%
9 | O=S(=O)(Nc1c(Cl)cccc1Cl)c1nc2ncccn2n1 [Compound 137] | 10% | 100% | 80% | 20% | 70% | 80% | 30% | 100% | – | 0% | 20% | 30% | 50% | 20% | 0%
10 | Cc1cn2nc(S(=O)(=O)Nc3c(Cl)cccc3Cl)nc2nc1N(C)C [Compound 237] | 10% | 30% | 0% | 30% | 20% | 50% | 100% | 50% | – | 40% | 10% | 20% | 20% | 10% | 20%
11 | Cc1cc(C(F)(F)F)n2nc(S(=O)(=O)Nc3c(F)cccc3F)nc2n1 [Compound 228] | 100% | 50% | 90% | 50% | 70% | 90% | 50% | 100% | 80% | 20% | 90% | 100% | – | 90% | 50%
12 | CSc1nc2nc(S(=O)(=O)Nc3c(Cl)cccc3Cl)nn2cc1C [Compound 235] | 50% | 0% | 20% | 20% | 90% | 50% | 50% | 50% | – | 0% | 0% | 50% | 10% | – | 50%
